Assay results: patent publication US11442059B2, “Method for treating a chronic itch condition by administering small molecule MrgprX4 antagonists” (The Johns Hopkins University, priority 2017, dated 2022)

Experiments:
[1] = molecular target: T1, Mrgpra1-GFP (Mus musculus, UniProt Q91WW5); experiment: Receptor internalization assay, Mrgpra1-GFP HEK293 cells; format: cell-based; conditions: 37° C.
T1 construct: expressed in transfected cells
T1 sequence (Q91WW5 1-304): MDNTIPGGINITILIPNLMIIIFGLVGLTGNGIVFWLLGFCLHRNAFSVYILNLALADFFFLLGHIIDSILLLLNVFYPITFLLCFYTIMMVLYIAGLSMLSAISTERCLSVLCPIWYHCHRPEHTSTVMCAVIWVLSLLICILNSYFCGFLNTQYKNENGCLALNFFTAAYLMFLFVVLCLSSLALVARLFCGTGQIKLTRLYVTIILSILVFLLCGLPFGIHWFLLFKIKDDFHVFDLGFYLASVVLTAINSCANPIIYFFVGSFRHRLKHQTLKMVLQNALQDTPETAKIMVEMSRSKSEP
Method: To label the drug with red-fluorescent dye, […] of LTG was dissolved in 50 μl dimethyformamide (DMF) first, and further diluted with 450 μl reaction buffer (0.1M sodium bicarbonate buffer, pH9.0) to obtain LTG at a concentration of 7.8 mM. Then, 50 μl of Texas-red-conjugated sulfonyl chloride (Thermo Fisher Scientific, T1905) dissolved in DMF at 10 mg ml−1 was slowly added into LTG solution. The reaction was incubated at 4° C. for 1 hour with continuous stirring. The mixture was then diluted into cell culture medium for further use. LTG labeled with Texas Red dye can create bright red-fluorescence with excitation/emission maxima ˜595/615 nm. HEK293 cells stably expressing Mrgpra1-GFP, Mrgprc11-GFP or MRGPRX4-GFP fusion protein were grown in DMEM with 10% FBS. After 4-6 hours of serum starvation, cells were treated with either medium, dye alone, unlabeled LTG or Texas-Red-labeled LTG at 37° C. for 15 or 60 min. Cells were washed with PBS and fixed with 4% paraformaldehyde in PBS. The subcellular localization of Mrgpr-GFP or drug was visualized under a confocal fluorescence microscope with a 400× magnification (Zeiss LSM 700).

[2] = test system: 129S1/SvImJ mice; experiment: SJS/TEN mouse model (daily oral gavage of causative drug); format: in vivo; conditions: for TUNEL-positive dead epithelial cells in paw: LTG oral daily
Method: Eight-to-ten week old male mice were orally gavaged with either causative drugs (LTG, allopurinol, oxcarbazepine) suspended in saline or saline once daily. The dosage was based on milligrams per kilogram of animal's body weight as indicated (for example, LTG 50 mg kg^−1 body weight). Skin, eyes, and mucosa, survival, body weight, physical and gross appearances (particularly on the eyes, mucosa and skins) were monitored every day.
The animals were deeply anesthetized with pentobarbital and transcardially perfused with 20 ml 0.1 M cold PBS (pH 7.4) followed with 25 ml of cold 4% paraformaldehyde (PFA). Paw skin, eyelid, spleen, lymph nodes were dissected out. postfixed in 4% PFA for more than two hours, and cryoprotected in a 20% followed by 30% sucrose solution for 24 hours each at 4° C. Tissue samples were embedded in the optimal cutting temperature (OCT) and frozen before being serially cut into 20 μm sections and placed onto slides. Hematoxylin and eosin (H&E) staining was performed using standard procedures according to the manufacturer's instruction VITROVIEW™ H&E Stain Kit). To quantify amount of apoptotic cells, terminal deoxynucleotidyl transferase dUTP nick end labeling (TUNEL) assay, a method for detecting DNA fragmentation that results from apoptotic cells by labeling the terminal end of nucleic acids, was performed by following the protocol of Apo-BrdU DNA Fragmentation Assay Kit (Biovision). To estimate the total cell number in tissue, all nuclei were stained with propidium iodide. Digital photographs were captured under confocal fluorescent microscopy at x200 magnification (Zeiss LSM 700). The number of TUNEL-positive nuclei were counted and reported as a percentage over the number of total nuclei observed in the skin's epidermis layer.

[3] = molecular target: MRGPRX4 (Homo sapiens, UniProt Q96LA9); experiment: Ca2+ imaging / EC50 determination in HEK293 cells expressing MRGPRX4; format: cell-based; parameters: expressed in transfected cells
Method: Lamotrigine (LTG), allopurinol, carbamazepine and oxcarbazepine (all from Sigma) were prepared fresh on the day of the experiment. These drugs were dissolved into dimethyl sulfoxide (DMSO) first, and then were diluted at least 10000× into calcium imaging buffer before use. The final concentrations of drugs for each experiment were indicated in the corresponding figure legend.
In initial experiments, HEK293 cells were plated on 100 μg/ml poly-D-lysine coated glass cover slips, and transiently transfected with vector containing Mrgprs gene, after 24-48 hours of culture, cells were loaded with Fura 2-acetomethoxy ester calcium indicator (0.5 μM, Molecular Probes) along with pluronic F-127 dispersing agent (0.1%, Molecular Probes) for 30 minutes in the dark at 37° C., then washed with calcium imaging buffer (CIB; NaCl 125 mM, KCl 3 mM, CaCl2 2.5 mM, MgCl2 0.6 mM, HEPES 10 mM, glucose 20 mM, NaHCO3 1.2 mM, sucrose 20 mM, brought to pH 7.4 with NaOH). Drugs were added to Fura 2-loaded cells and intracellular free calcium was measured using 340 nm and 380 nm excitation wavelengths with emission measured at 520 nm with a microscope based imaging system (Nikon Eclipse TE200). Changes in emission fluorescence ratios at 340/380 nm excitation were continuously monitored at 1 second intervals. Later, experiments were performed using Mrgpra1-GFP, Mrgprc11-GFP and MRGPRX4-GFP stable cell lines to confirm the findings obtained from the transiently expressing cells.
Mrgpra1 or both wild-type and mutant MRGPRX4 stably expressed HEK cells were plated overnight in 100 μl culture media on 96-well plates. […] After 1 hour of incubation at 37° C., cells were allowed to recover for 10 minutes in the dark at room temperature prior to performing intracellular calcium mobilization assay in a FLEXSTATION® multi-mode plate reader (Molecular Devices). […] Responses were determined by subtracting the minimum signal (at the basal level before adding the drug) from the maximum signal (obtained after stimulating with the drug). […]

MRGPRX4, sequence (Q96LA9 whole entry): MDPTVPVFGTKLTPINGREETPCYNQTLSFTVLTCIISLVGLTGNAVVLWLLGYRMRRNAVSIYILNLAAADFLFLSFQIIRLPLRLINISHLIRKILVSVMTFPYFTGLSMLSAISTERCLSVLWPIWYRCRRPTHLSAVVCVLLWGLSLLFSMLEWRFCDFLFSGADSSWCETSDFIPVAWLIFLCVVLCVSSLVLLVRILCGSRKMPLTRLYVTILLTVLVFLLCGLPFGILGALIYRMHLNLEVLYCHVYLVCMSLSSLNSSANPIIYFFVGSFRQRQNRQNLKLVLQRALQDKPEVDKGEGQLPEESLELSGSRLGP

For `Nc1nnc(-c2cccc(Cl)c2Cl)c(N)n1` [LTG, Lamotrigine], the “internalization of Mrgpra1-GFP” value [1] was “can induce the internalization”, the mortality rate ([2]; LTG 50 mg kg−1 oral daily, by day 14, WT 129S1/SvImJ mice) was 60% and the “TUNEL-positive dead epithelial cells in paw” value ([2]; day 9, HET mice) was 45.99±1.84%. The “TUNEL-positive dead epithelial cells in paw” value ([2]; day 9, KO mice) was 6.10±1.63%, the “TUNEL-positive dead epithelial cells in paw” value ([2]; day 9, WT mice) was 48.74±5.94% and the survival ([2]; day 14 of LTG treatment, KO group) was “no mouse died”. For the same compound, the mice survived ([2]; day 14 of LTG treatment, WT and HET groups) was 30%, the EC50 ([3]; HEK293 cells, Ca2+ assay) was ~200 µM and the “activation of human MRGPRX4 (Ca2+ imaging)” value ([3]; Mrgprs individually expressed in HEK293 cells) was “specifically activated”.
